System: patients after acute myocardial infarction
Experiment: Life quality, Seattle Angina Questionnaire (SAQ), same clinical trial
Assay type: in vivo, human
Settings: PP
Source text: 3508 patients who were in accordance with the diagnostic standards of AMI for 28 days to 2 years and differentiated as Qi deficiency and blood stagnation syndrome by TCM were studied. 0.5 g Chinese medicine composition prepared by the method of EXAMPLE 1 (Coded as QSYQ) was administrated half an hour after meal, 3 times per day.
There were 19 questions in the Seattle angina questionnaire (SAQ), including 5 parts: physical limitation (PL), anginal stability (AS), anginal frequency (AF), treatment satisfaction (TS) and disease perception (DP). After being given necessary explanation by doctors, the questions were answered independently by patients.
They included the overall survival time, angina pectoris score, TCM symptom score and life quality score, where angina pectoris score, TCM symptom score and life quality score were evaluated at randomization, in 1st, 3rd, 6th, 9th, 12th month after treatment and 18th month after follow-up.
All evaluation results of SAQ were described during the period of observation, and Wilcoxon rank sum test was used for inter-group comparison.
The evaluation results in the SAQ were depicted in different observations, and inter-group comparison was tested by Wilcoxon Rank-sum test.

CC(=O)Oc1ccccc1C(=O)O [Control group, aspirine]
11th question: Often worried, patients (%) (3 months after treatment): (19.03%)
11th question: Seldom worried, patients (%) (3 months after treatment): (30.12%)
SAQ 4th question, 1-2 times per week: % of patients (3 months after treatment): (17.09%)
SAQ 4th question, 1-2 times per week: number of patients (3 months after treatment): 251
SAQ 4th question, 1-3 times per day: % of patients (3 months after treatment): (5.31%)
SAQ 4th question, 1-3 times per day: number of patients (3 months after treatment): 78
SAQ 4th question, <1 time per week: % of patients (3 months after treatment): (10.35%)
SAQ 4th question, <1 time per week: number of patients (3 months after treatment): 152
SAQ 4th question, Not used: % of patients (3 months after treatment): (56.71%)
SAQ 4th question, Not used: number of patients (3 months after treatment): 833
SAQ 4th question, ≧3 times per week: % of patients (3 months after treatment): (10.55%)
SAQ 4th question, ≧3 times per week: number of patients (3 months after treatment): 155
SAQ 4th question, ≧4 times per day: % of patients (3 months after treatment): (0.00%)
SAQ 4th question, ≧4 times per day: number of patients (3 months after treatment): 0
SAQ 5th question, Few: % of patients (3 months after treatment): (24.57%)
SAQ 5th question, Few: number of patients (3 months after treatment): 361
SAQ 5th question, Mild: % of patients (3 months after treatment): (26.14%)
SAQ 5th question, Mild: number of patients (3 months after treatment): 384
SAQ 5th question, Moderate: % of patients (3 months after treatment): (16.13%)
SAQ 5th question, Moderate: number of patients (3 months after treatment): 237
SAQ 5th question, None: % of patients (3 months after treatment): (27.16%)
SAQ 5th question, None: number of patients (3 months after treatment): 399
SAQ 5th question, Not medicated by doctors: % of patients (3 months after treatment): (4.56%)
SAQ 5th question, Not medicated by doctors: number of patients (3 months after treatment): 67
SAQ 5th question, Severe: % of patients (3 months after treatment): (1.43%)
SAQ 5th question, Severe: number of patients (3 months after treatment): 21
SAQ 6th question, Dissatisfied: % of patients (3 months after treatment): (0.07%)
SAQ 6th question, Dissatisfied: number of patients (3 months after treatment): 1
SAQ 6th question, Highly satisfied: % of patients (3 months after treatment): (20.04%)
SAQ 6th question, Highly satisfied: number of patients (3 months after treatment): 295
SAQ 6th question, Mostly dissatisfied: % of patients (3 months after treatment): (2.51%)
SAQ 6th question, Mostly dissatisfied: number of patients (3 months after treatment): 37
SAQ 6th question, Mostly satisfied: % of patients (3 months after treatment): (51.09%)
SAQ 6th question, Mostly satisfied: number of patients (3 months after treatment): 752
SAQ 6th question, Partly satisfied: % of patients (3 months after treatment): (26.29%)
SAQ 6th question, Partly satisfied: number of patients (3 months after treatment): 387
SAQ 7th question, Dissatisfied: % of patients (3 months after treatment): (0.07%)
SAQ 7th question, Dissatisfied: number of patients (3 months after treatment): 1
SAQ 7th question, Highly satisfied: % of patients (3 months after treatment): (23.06%)
SAQ 7th question, Highly satisfied: number of patients (3 months after treatment): 339
SAQ 7th question, Mostly dissatisfied: % of patients (3 months after treatment): (1.84%)
SAQ 7th question, Mostly dissatisfied: number of patients (3 months after treatment): 27
SAQ 7th question, Mostly satisfied: % of patients (3 months after treatment): (53.47%)
SAQ 7th question, Mostly satisfied: number of patients (3 months after treatment): 786
SAQ 7th question, Partly satisfied: % of patients (3 months after treatment): (21.56%)
SAQ 7th question, Partly satisfied: number of patients (3 months after treatment): 317
SAQ Question 1-1 Mildly limited, number of patients (3 months after treatment): 22
SAQ Question 1-1 Mildly limited, percent of patients (3 months after treatment): (1.50%)
SAQ Question 1-1 Moderately limited, number of patients (3 months after treatment): 6
SAQ Question 1-1 Moderately limited, percent of patients (3 months after treatment): (0.41%)
SAQ Question 1-1 Not limited, number of patients (3 months after treatment): 1381
SAQ Question 1-1 Not limited, percent of patients (3 months after treatment): (93.95%)
SAQ Question 1-1 Other reasons, number of patients (3 months after treatment): 3
SAQ Question 1-1 Other reasons, percent of patients (3 months after treatment): (0.20%)
SAQ Question 1-1 Severely limited, number of patients (3 months after treatment): 0
SAQ Question 1-1 Severely limited, percent of patients (3 months after treatment): (0.00%)
SAQ Question 1-1 Slightly limited, number of patients (3 months after treatment): 58
SAQ Question 1-1 Slightly limited, percent of patients (3 months after treatment): (3.95%)
SAQ Question 1-2 Mildly limited, number of patients (3 months after treatment): 19
SAQ Question 1-2 Mildly limited, percent of patients (3 months after treatment): (1.29%)
SAQ Question 1-2 Moderately limited, number of patients (3 months after treatment): 8
SAQ Question 1-2 Moderately limited, percent of patients (3 months after treatment): (0.54%)
SAQ Question 1-2 Not limited, number of patients (3 months after treatment): 1353
SAQ Question 1-2 Not limited, percent of patients (3 months after treatment): (92.04%)
SAQ Question 1-2 Other reasons, number of patients (3 months after treatment): 6
SAQ Question 1-2 Other reasons, percent of patients (3 months after treatment): (0.41%)
SAQ Question 1-2 Severely limited, number of patients (3 months after treatment): 0
SAQ Question 1-2 Severely limited, percent of patients (3 months after treatment): (0.00%)
SAQ Question 1-2 Slightly limited, number of patients (3 months after treatment): 84
SAQ Question 1-2 Slightly limited, percent of patients (3 months after treatment): (5.71%)
SAQ Question 1-6: Mildly limited, patients (%) (3 months after treatment): (17.92%)
SAQ Question 1-6: Moderately limited, patients (%) (3 months after treatment): (13.89%)
SAQ Question 1-6: Not limited, patients (%) (3 months after treatment): (30.92%)
SAQ Question 1-6: Other reasons, patients (%) (3 months after treatment): (0.96%)
SAQ Question 1-6: Severely limited, patients (%) (3 months after treatment): (3.83%)
SAQ Question 1-6: Slightly limited, patients (%) (3 months after treatment): (32.49%)
SAQ Question 1-7: Mildly limited, patients (%) (3 months after treatment): (23.81%)
SAQ Question 1-7: Moserately limited, patients (%) (3 months after treatment): (14.91%)
SAQ Question 1-7: Not limited, patients (%) (3 months after treatment): (13.46%)
SAQ Question 1-7: Other reasons, patients (%) (3 months after treatment): (3.11%)
SAQ Question 1-7: Severely limited, patients (%) (3 months after treatment): (16.01%)
SAQ Question 1-7: Slightly limited, patients (%) (3 months after treatment): (28.71%)
SAQ Question 1-8: Mildly limited, patients (%) (3 months after treatment): (25.82%)
SAQ Question 1-8: Moderately limited, patients (%) (3 months after treatment): (17.90%)
SAQ Question 1-8: Not limited, patients (%) (3 months after treatment): (10.48%)
SAQ Question 1-8: Other reasons, patients (%) (3 months after treatment): (2.91%)
SAQ Question 1-8: Severely limieted, patients (%) (3 months after treatment): (21.30%)
SAQ Question 1-8: Slightly limited, patients (%) (3 months after treatment): (21.58%)
8th question: Dissatisfied, patients (%) (6 months after treatment): (0.07%)
8th question: Highly satisfied, patients (%) (6 months after treatment): (20.69%)
8th question: Mostly satisfied, patients (%) (6 months after treatment): (56.70%)
8th question: Partly satisfied, patients (%) (6 months after treatment): (20.96%)
9th question: Few, patients (%) (6 months after treatment): (34.99%)
9th question: Mild, patients (%) (6 months after treatment): (34.44%)
9th question: Moderate, patients (%) (6 months after treatment): (10.54%)
9th question: Severe, patients (%) (6 months after treatment): (0.21%)
9th question: Uneffective, patients (%) (6 months after treatment): (19.83%)
10th question: Dissatisfied, patients (%) (6 months after treatment): (20.36%)
10th question: Highly satisfied, patients (%) (6 months after treatment): (4.88%)
10th question: Mostly dissatisfied, patients (%) (6 months after treatment): (21.32%)
10th question: Mostly satisfied, patients (%) (6 months after treatment): (26.34%)
10th question: Partly satisfied, patients (%) (6 months after treatment): (27.10%)
11th question: Continuously worried, patients (%) (6 months after treatment): (3.44%)
11th question: No worried, patients (%) (6 months after treatment): (4.81%)
11th question: Occasionally worried, patients (%) (6 months after treatment): (42.68%)
11th question: Often worried, patients (%) (6 months after treatment): (14.57%)
11th question: Seldom worried, patients (%) (6 months after treatment): (34.50%)
SAQ 4th question, 1-2 times per week: % of patients (6 months after treatment): (18.08%)
SAQ 4th question, 1-2 times per week: number of patients (6 months after treatment): 263
SAQ 4th question, 1-3 times per day: % of patients (6 months after treatment): (3.85%)
SAQ 4th question, 1-3 times per day: number of patients (6 months after treatment): 56
SAQ 4th question, <1 time per week: % of patients (6 months after treatment): (11.34%)
SAQ 4th question, <1 time per week: number of patients (6 months after treatment): 165
SAQ 4th question, Not used: % of patients (6 months after treatment): (60.14%)
SAQ 4th question, Not used: number of patients (6 months after treatment): 875
SAQ 4th question, ≧3 times per week: % of patients (6 months after treatment): (6.53%)
SAQ 4th question, ≧3 times per week: number of patients (6 months after treatment): 95
SAQ 4th question, ≧4 times per day: % of patients (6 months after treatment): (0.07%)
SAQ 4th question, ≧4 times per day: number of patients (6 months after treatment): 1
SAQ 5th question, 1-2 times per week: % of patients (6 months after treatment): (27.01%)
SAQ 5th question, 1-2 times per week: number of patients (6 months after treatment): 393
SAQ 5th question, 1-3 times per day: % of patients (6 months after treatment): (11.00%)
SAQ 5th question, 1-3 times per day: number of patients (6 months after treatment): 160
SAQ 5th question, <1 time per week: % of patients (6 months after treatment): (28.18%)
SAQ 5th question, <1 time per week: number of patients (6 months after treatment): 410
SAQ 5th question, No onset: % of patients (6 months after treatment): (4.47%)
SAQ 5th question, No onset: number of patients (6 months after treatment): 65
SAQ 5th question, ≧3 times per week: % of patients (6 months after treatment): (28.93%)
SAQ 5th question, ≧3 times per week: number of patients (6 months after treatment): 421
SAQ 5th question, ≧4 times per day: % of patients (6 months after treatment): (0.41%)
SAQ 5th question, ≧4 times per day: number of patients (6 months after treatment): 6
SAQ 6th question, Dissatisfied: % of patients (6 months after treatment): (0.00%)
SAQ 6th question, Dissatisfied: number of patients (6 months after treatment): 0
SAQ 6th question, Highly satisfied: % of patients (6 months after treatment): (22.27%)
SAQ 6th question, Highly satisfied: number of patients (6 months after treatment): 324
SAQ 6th question, Mostly dissatisfied: % of patients (6 months after treatment): (1.65%)
SAQ 6th question, Mostly dissatisfied: number of patients (6 months after treatment): 24
SAQ 6th question, Mostly satisfied: % of patients (6 months after treatment): (55.95%)
SAQ 6th question, Mostly satisfied: number of patients (6 months after treatment): 814
SAQ 6th question, Partly satisfied: % of patients (6 months after treatment): (20.14%)
SAQ 6th question, Partly satisfied: number of patients (6 months after treatment): 293
SAQ 7th question, Dissatisfied: % of patients (6 months after treatment): (0.07%)
SAQ 7th question, Dissatisfied: number of patients (6 months after treatment): 1
SAQ 7th question, Highly satisfied: % of patients (6 months after treatment): (25.67%)
SAQ 7th question, Highly satisfied: number of patients (6 months after treatment): 373
SAQ 7th question, Mostly dissatisfied: % of patients (6 months after treatment): (1.10%)
SAQ 7th question, Mostly dissatisfied: number of patients (6 months after treatment): 16
SAQ 7th question, Mostly satisfied: % of patients (6 months after treatment): (58.22%)
SAQ 7th question, Mostly satisfied: number of patients (6 months after treatment): 846
SAQ 7th question, Partly satisfied: % of patients (6 months after treatment): (14.93%)
SAQ 7th question, Partly satisfied: number of patients (6 months after treatment): 217
SAQ Question 1-1 Mildly limited, number of patients (6 months after treatment): 22
SAQ Question 1-1 Mildly limited, percent of patients (6 months after treatment): (1.52%)
SAQ Question 1-1 Moderately limited, number of patients (6 months after treatment): 4

From patent US9211310B2, “Use of a Chinese medicine composition in preparing medicaments for treating secondary prevention of myocardial infarction” (TASLY PHARMACEUTICAL GROUP CO., LTD, priority 2010, dated 2015)
